Active and inactive are the calls of the source. The rule behind the calls is not given here.
Assays:
[1] = molecular target: T1, Dual specificity protein kinase TTK (Homo sapiens) (UniProt P33981); experiment: Binding affinity to human hexa-His tagged MPS1 (515 to 795 residue) expressed in Escherichia coli BL2I-DE3 cells assessed as change in melting temperature by thermal shift assay
T1 sequence (whole entry): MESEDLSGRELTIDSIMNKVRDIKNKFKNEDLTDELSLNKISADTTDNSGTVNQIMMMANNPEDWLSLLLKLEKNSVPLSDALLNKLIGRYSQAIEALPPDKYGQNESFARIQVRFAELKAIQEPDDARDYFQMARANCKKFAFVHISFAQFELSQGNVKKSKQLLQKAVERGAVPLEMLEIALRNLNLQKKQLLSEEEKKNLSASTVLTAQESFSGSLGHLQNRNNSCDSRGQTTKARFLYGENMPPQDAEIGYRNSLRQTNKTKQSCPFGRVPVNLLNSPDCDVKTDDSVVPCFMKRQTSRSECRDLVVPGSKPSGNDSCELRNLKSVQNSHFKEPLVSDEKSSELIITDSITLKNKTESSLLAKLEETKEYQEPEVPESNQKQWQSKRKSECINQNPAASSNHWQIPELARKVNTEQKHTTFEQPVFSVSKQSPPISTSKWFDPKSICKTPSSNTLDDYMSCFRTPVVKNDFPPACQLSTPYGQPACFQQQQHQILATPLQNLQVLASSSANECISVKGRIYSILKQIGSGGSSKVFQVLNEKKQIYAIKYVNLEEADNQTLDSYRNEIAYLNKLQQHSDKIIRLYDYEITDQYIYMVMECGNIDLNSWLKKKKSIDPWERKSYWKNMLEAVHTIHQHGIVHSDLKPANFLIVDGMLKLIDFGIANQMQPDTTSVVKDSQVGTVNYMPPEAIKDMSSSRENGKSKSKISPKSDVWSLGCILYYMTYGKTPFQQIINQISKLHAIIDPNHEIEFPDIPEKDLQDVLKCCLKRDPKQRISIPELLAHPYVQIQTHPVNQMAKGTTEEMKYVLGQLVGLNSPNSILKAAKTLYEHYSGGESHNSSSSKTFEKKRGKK

[2] = tested on: MDA-MB-231; experiment: Growth inhibition of human MDA-MB-231 cells measured after 5 days by CellTiter-Glo assay; format: functional; settings: time 5 day; for GI50: Homo sapiens, MDA-MB-231, 120 h
[3] = molecular target: T2, Dual specificity protein kinase TTK (Homo sapiens, UniProt P33981); experiment: Inhibition of human hexa-His tagged MPS1 (515 to 795 residue) expressed in Escherichia coli BL2I-DE3 cells incubated for 4 hrs in presence of ATP by ADP-glo luminescence assay
T2 sequence (P33981 whole entry): T1 sequence (whole entry)

[4] = Metabolic stability in human liver microsomes assessed as compound remaining after 30 mins; format: ADME, Microsome; settings: read-out: Stability
[5] = Half life in ICR mouse at 10 mg/kg, po; format: ADME, organism-based; settings: in vivo
[6] = Cmax in ICR mouse at 10 mg/kg, po; format: ADME, organism-based; parameters: route oral, dose 10 mg/kg; settings: in vivo
[7] = AUC in ICR mouse at 10 mg/kg, po; format: ADME, organism-based; parameters: dose 10 mg/kg; settings: in vivo
[8] = Oral bioavailability in ICR mouse at 10 mg/kg; format: ADME, organism-based; settings: in vivo
[9] = tested on: MDA-MB-231; experiment: Antitumor activity against human MDA-MB-231 cells xenografted in athymic mouse model assessed as tumor growth inhibition at 2 mg/kg administered daily and measured twice a week; format: functional; settings: read-out: TGI
[10] = Toxicity in athymic mouse xenografted with human MDA-MB-231 cells assessed as change in intestine morphology at 2 mg/kg administered daily and measured twice a week; format: organism-based; settings: in vivo
[11] = Toxicity in athymic mouse xenografted with human MDA-MB-231 cells assessed as effect on body weight at 2 mg/kg administered daily and measured twice a week; format: organism-based; settings: in vivo
[12] = Toxicity in athymic mouse xenografted with human MDA-MB-231 cells assessed as body weight gain at 2 mg/kg administered daily and measured twice a week (reference value: 15.5 %); format: organism-based; settings: in vivo
[13] = molecular target: T1, Dual specificity protein kinase TTK (Homo sapiens); experiment: Inhibition of human […] assessed as reduction in MPS1 autophosphorylation at 0.1 to 10 uM by Western blot analysis; settings: dose 0.1-10 µM
[14] = molecular target: T1, Dual specificity protein kinase TTK (Homo sapiens); experiment: Inhibition of human […] assessed as reduction in histone H3 phosphorylation at 0.1 to 10 uM by Western blot analysis; settings: dose 0.1-10 µM

Structure (SMILES) | ΔTm [1] [°C] | GI50 [2] [nM] | GI90 [2] [nM] | other results
COc1cc(C(=O)N2CCOCC2)ccc1Nc1nc(NC2CCCCC2)c2c(C#N)c[nH]c2n1 | 16.1 | 3 | 43 | IC50 [3]: 3.2 nM; remaining at 0.5 h [4]: 56%; half-life [5]: 2.6 h; Cmax [6]: 995 ng/mL; AUC [7]: 3770 ng·h/mL; bioavailability [8]: 98%
COc1cc(N2CCCC2=O)ccc1Nc1nc(NC2CCCC2)c2c(C#N)c[nH]c2n1 | 17.1 | 25 | 383 | –
Cc1cc(N2CCOCC2)ccc1Nc1nc(NC2CCCCC2)c2c(Cl)c[nH]c2n1 | 18.1 | 129 | >1000 | –
COc1cc(N2CCOCC2=O)ccc1Nc1nc(NC2CCCCC2)c2c(C#N)c[nH]c2n1 | 17.2 | 10 | >1000 | –
Cc1cc(N2CCOCC2)ccc1Nc1nc(NC2CCCCC2)c2c(C#N)c[nH]c2n1 | 19.9 | 17 | 313 | IC50 [3]: 6.3 nM; remaining at 0.5 h [4]: 57%; half-life [5]: 1.2 h; Cmax [6]: 749 ng/mL; AUC [7]: 1270 ng·h/mL; bioavailability [8]: 44%
N#Cc1c[nH]c2nc(Nc3ccc(N4CCCC4=O)cc3)nc(NC3CCCCC3)c12 | 17.2 | 46 | 67 | –
COc1cc(N2CCCC2=O)ccc1Nc1nc(NCC2CCCC2)c2c(C#N)c[nH]c2n1 | 15.2 | 171 | >1000 | –
COc1cc(N2CCCC2=O)ccc1Nc1nc(NC2CCCCC2)c2cc[nH]c2n1 | 15.3 | 55 | 380 | –
COc1cc(N2CCCC2=O)ccc1Nc1nc(NC2CCCCC2)c2c(C#N)c[nH]c2n1 | 18.3 | 11 | 37 | inhibition in vivo at 2 mg/kg [9]: 57%; IC50 [3]: 6.4 nM; remaining at 0.5 h [4]: 60%; half-life [5]: 1.1 h; Cmax [6]: 2220 ng/mL; AUC [7]: 6150 ng·h/mL; bioavailability [8]: 61%; Activity [10]: Non-Toxic; Activity [11]: Non-Toxic; Activity [12]: 7.6%; inhibition [13]: Active; inhibition [14]: Active
COc1cc(N2CCCC2=O)ccc1Nc1nc(NC2CCCCC2)c2c(C(F)(F)F)c[nH]c2n1 | 15.1 | 327 | >1000 | –
CCOc1cc(N2CCCC2=O)ccc1Nc1nc(NC2CCCCC2)c2c(C#N)c[nH]c2n1 | 16.9 | 108 | 478 | –
N#Cc1c[nH]c2nc(Nc3ccc(N4CCCC4=O)cn3)nc(NC3CCCCC3)c12 | 13.8 | 364 | 668 | –
COc1cc(N2CCCC2=O)ccc1Nc1nc(NC2CCOCC2)c2c(C#N)c[nH]c2n1 | 14.8 | > 1000 | >1000 | –
Cc1cc(N2CCOCC2)ccc1Nc1nc(NC2CCCCC2)c2c(C(F)(F)F)c[nH]c2n1 | 17.2 | > 1000 | >1000 | –
Cn1cc(Nc2nc(NC3CCCCC3)c3c(C#N)c[nH]c3n2)cn1 | 15.2 | 109 | >1000 | –

The next lines start with results.

ΔTm [1] [°C] | GI50 [2] [nM] | GI90 [2] [nM] | Structure (SMILES) | other results
15.1 | 96 | 328 | CC[C@H](C)Nc1nc(Nc2ccc(N3CCCC3=O)cc2OC)nc2[nH]cc(C#N)c12 | –
11.2 | 18 | 267 | CCCCNc1nc(Nc2ccc(N3CCCC3=O)cc2OC)nc2[nH]cc(C#N)c12 | –
14.4 | 149 | >1000 | COc1cc(N2CCCC2=O)ccc1Nc1nc(NCC(C)(C)C)c2c(C#N)c[nH]c2n1 | –
15.2 | > 1000 | >1000 | COc1cc(N2CCCC2=O)ccc1Nc1nc(NCC2CCC2)c2c(C#N)c[nH]c2n1 | –
14.2 | 10 | 481 | COc1cc(N2CCCC2=O)ccc1Nc1nc(NC(C)C)c2c(C#N)c[nH]c2n1 | –
7.3 | 637 | >1000 | CNc1nc(Nc2ccc(N3CCCC3=O)cc2OC)nc2[nH]cc(C#N)c12 | –
14.3 | > 1000 | >1000 | COc1cc(N2CCCC2=O)ccc1Nc1nc(NC2CCC2)c2c(C#N)c[nH]c2n1 | –
15.1 | 916 | >1000 | COCC(C)(C)Nc1nc(Nc2ccc(N3CCCC3=O)cc2OC)nc2[nH]cc(C#N)c12 | –
13.8 | 20 | 122 | COc1cc(N2CCCC2=O)ccc1Nc1nc(NCC(C)C)c2c(C#N)c[nH]c2n1 | –
